Some test systems named below: HL-60(TB) leukemia; KM12 colon; MALME-3M melanoma; NCI-H522 lung; RPMI-8226 leukemia; SF-268 CNS; SF-539 CNS; SK-MEL-2 melanoma; SR leukemia; UO-31 renal.
Common to all, as to assay: DTP human tumour cell line panel, 48 h

Data on 10 compounds can be found in PubChem BioAssay (NCI).

Where “and” joins values, the source holds several entries; their conditions need not be identical. Equal values may be shown once.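 Grown in 96-well plates, cells were treated for 48 hours with each compound at five concentrations. Insufficient inhibition: endpoint recorded as highest concentration tested. Abbreviation: GI50, concentration required for 50% inhibition of growth. At the TGI there is no net growth.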

On to `CC/C(Cl)=N\OC(=O)Nc1ccc(C#N)cc1`, for which the TGI (as a rule, the concentration at which net growth stops) in the test on HL-60(TB) leukemia came to 6.2 µM; with KM12 colon, 31.6 µM; in the test with MALME-3M melanoma, 8.25 µM; in the test on NCI-H522 lung, 2.82 µM; in the test on RPMI-8226 leukemia it was 8.66 µM; with SF-268 CNS, 33 µM. Besides, the TGI in the test on SF-539 CNS was 30.5 µM; with SK-MEL-2 melanoma, 30 µM; in the test on SR leukemia it was 22.7 µM; in the test with UO-31 renal, 31 µM.

As to `COC/C=C\[C@@]1(O)CCCC[C@@H]1CC(OC)OC`, the concentration for total growth inhibition (TGI) in the test with HL-60(TB) leukemia was above 28.4 µM; in the test on KM12 colon, above 100 µM; in the test with MALME-3M melanoma, above 100 µM; in the test with NCI-H522 lung, 38.4 µM; with RPMI-8226 leukemia it was 70.9 µM; with SF-268 CNS it was above 91.9 µM. Further, the total growth inhibition concentration (TGI) was above 100 µM in the test on SF-539 CNS, above 100 µM with SK-MEL-2 melanoma, 98.9 µM with SR leukemia and above 96.6 µM in the test on UO-31 renal.

As for `CC(C)[Si](OC1=CCCCCC12C(=O)N(C)c1ccccc12)(C(C)C)C(C)C` (configuration not stated), the TGI with HL-60(TB) leukemia was found to be 38.9 µM; in the test on KM12 colon, 38 µM; in the test with MALME-3M melanoma, 45.8 µM; in the test with NCI-H522 lung, 33.7 µM; in the test on RPMI-8226 leukemia, 36.5 µM; in the test with SF-268 CNS it was 48.1 µM. Also, the TGI came to 41.7 µM in the test with SF-539 CNS, 37.6 µM with SK-MEL-2 melanoma, 67.3 µM in the test with SR leukemia and 36.7 µM with UO-31 renal.

On to `Cc1ccc(C2=Nc3c(N)nc(N)nc3NC(c3ccccc3)C2)cc1` (configuration not stated), for which the TGI was 20.3 µM with HL-60(TB) leukemia; 13.8 µM and 33.7 µM in the test with KM12 colon; 23.6 µM and 24.5 µM in the test on MALME-3M melanoma; 16 µM and 30.9 µM with NCI-H522 lung; above 100 µM in the test on RPMI-8226 leukemia; 29.9 µM and 31.8 µM in the test on SF-268 CNS. In addition, the TGI is 25.3 µM in the test on SF-539 CNS; 22 µM and 17.9 µM in the test with SK-MEL-2 melanoma; above 100 µM in the test with SR leukemia; 25.2 µM and 25.6 µM with UO-31 renal. Also, the GI50 – broadly, the concentration that inhibits growth by half – is 3.97 µM and 18 µM in the test on KM12 colon; 9.71 µM and 4.19 µM in the test with SK-MEL-2 melanoma.

`O=C(NCc1ccccc1)c1cnc(Cl)cn1`: the concentration for total growth inhibition (TGI) with HL-60(TB) leukemia is above 100 µM; with KM12 colon, above 100 µM; in the test on MALME-3M melanoma, above 100 µM; in the test with NCI-H522 lung it was 4.35 µM; in the test with RPMI-8226 leukemia it was above 100 µM; in the test with SF-268 CNS, above 100 µM. For the same compound, the concentration for total growth inhibition (TGI) in the test with SF-539 CNS is above 100 µM; in the test with SK-MEL-2 melanoma it was above 100 µM; in the test on SR leukemia, 69.8 µM; in the test with UO-31 renal, 36.3 µM.

On to `Cn1c(=O)n(CC(Br)CBr)c(=O)n(CC(Br)CBr)c1=O` (configuration not stated), for which the TGI was 58 µM in the test on HL-60(TB) leukemia; above 100 µM with KM12 colon; above 100 µM in the test with MALME-3M melanoma; above 100 µM in the test on NCI-H522 lung; 63.8 µM in the test with RPMI-8226 leukemia; above 100 µM in the test with SF-268 CNS. The concentration for total growth inhibition (TGI) in the test with SF-539 CNS is 61.1 µM; with SK-MEL-2 melanoma, above 100 µM; in the test with SR leukemia it was 37.4 µM; in the test with UO-31 renal, 97.6 µM.

In the case of `CCN(CC)CCNc1ccc(C)c2sc3ccc(O)cc3c(=O)c12`, the TGI in the test on HL-60(TB) leukemia came to 0.979 µM; in the test with KM12 colon, 3.39 µM; with MALME-3M melanoma it was 2.38 µM; with NCI-H522 lung it was 2.7 µM; with RPMI-8226 leukemia it was 4.95 µM; with SF-268 CNS, 7.93 µM. For the same compound, the total growth inhibition concentration (TGI) in the test on SF-539 CNS stood at 2.5 µM; in the test with SK-MEL-2 melanoma, 3.24 µM; with SR leukemia it was 0.981 µM; in the test on UO-31 renal, 3.82 µM.

Regarding `C=C1C(=O)OC2/C=C(\C)C(O)/C=C\C(C)(O)CC(OC(=O)/C(C)=C/C)C12` (configuration not stated), the total growth inhibition concentration (TGI) with HL-60(TB) leukemia is above 64 µM; with KM12 colon it was above 100 µM; in the test on MALME-3M melanoma, 40.4 µM; with NCI-H522 lung, 26.2 µM; in the test with RPMI-8226 leukemia, above 68.6 µM; in the test with SF-268 CNS it was above 100 µM. Moreover, the total growth inhibition concentration (TGI) in the test with SF-539 CNS is 20.7 µM; in the test on SK-MEL-2 melanoma, 48.8 µM; with SR leukemia, 55.7 µM; in the test with UO-31 renal, above 100 µM.

For the compound `COC(=O)C1=C(C)NC(C)=C([N+](=O)[O-])C1c1cccc(NO)c1` (configuration not stated), the total growth inhibition concentration (TGI) is 5.57 µM with HL-60(TB) leukemia; 6.85 µM in the test on KM12 colon; 22.9 µM with MALME-3M melanoma; 13.9 µM in the test on NCI-H522 lung; 12.6 µM in the test on RPMI-8226 leukemia; above 100 µM with SF-268 CNS. The TGI was 37 µM with SF-539 CNS, above 43.8 µM in the test with SK-MEL-2 melanoma, 8.93 µM in the test on SR leukemia and 24.1 µM in the test on UO-31 renal.

For `Cc1nc(-c2nc([N+](=O)[O-])c([N+](=O)[O-])[nH]2)cs1`, the TGI in the test on HL-60(TB) leukemia, with KM12 colon, in the test with MALME-3M melanoma, in the test on NCI-H522 lung, with RPMI-8226 leukemia and with SF-268 CNS was above 100 µM each time. Further, the TGI with SF-539 CNS, with SK-MEL-2 melanoma, in the test on SR leukemia and with UO-31 renal was above 100 µM each time.
